Data taken from patent US20220040180A1, “KITS AND METHODS FOR TREATING CANCERS” (Spectrum Pharmaceuticals, Inc., priority 2018, published 2022).

Legend:
Format in all cases: physicochemical
[1] = Test Example 1: comparative solubility of amorphous and crystalline hydrochloride salt forms (HPLC); conditions: 25° C., loading of 1.0 mg/mL; for Solubility, Water: LOD 0.1 μg/mL
Experimental: To compare the solubility of amorphous hydrochloride salt form and crystalline hydrochloride salt polymorphs, each of the polymorphs and amorphous form of the hydrochloride salt of the compound of chemical formula (1) prepared in Examples 4 to 6 was used to prepare samples under the following conditions according to non-ionized water and acidity (pH). Thereafter, each solution was analyzed by high performance liquid chromatography (HPLC) according to the measurement conditions of the content of the compound of chemical formula (1) to measure the dissolved amount (LOD: 0.1 μg/mL) based on the compound of chemical formula (1).
Specifically, 5 mg of each polymorph was added to 5 ml of water and mixed using a Voltamixer at 20-25° C. Thereafter, the filtrate obtained by filtrating using GH Polypro membrane Acrodisc, PALL (pore size 0.2 μm) was diluted with a dilution solvent for high performance liquid chromatography (HPLC) at a ratio of 1/100, to obtain the samples.

[2] = Test Example 2: comparative storage stability of hydrochloride salt forms, purity by HPLC
Experimental: High performance liquid chromatography (HPLC) was conducted on the Agilent 1100/1200 series HPLC Systems (Agilent, USA) analyzer for the purpose of purity and content analysis including stability test and the like. The analysis conditions of the HPLC are as follows.
To compare the stability of amorphous hydrochloride salt form and crystalline hydrochloride salt polymorphs, each of samples of the polymorphs and amorphous form of the hydrochloride salt of the compound of chemical formula (1) prepared in Examples 4 to 6 was left for 4 weeks under long term conditions (e.g., temperature of 25±2° C. and relative humidity of 60±5%) and accelerated conditions (e.g., temperature of 40° C. and relative humidity of 75%). Each sample was analyzed by high performance liquid chromatography (HPLC) according to the purity measurement conditions of the compound of chemical formula (1).

[3] = Dynamic vapor sorption (DVS) hygroscopicity
Experimental: Dynamic Vapor Sorption (DVS) analysis was conducted on the DVS advantage (Surface measurement system, United Kingdom) analyzer at 25° C. and relative humidity of 0-90%.
10 mg of sample was placed in the wire mesh steam sorption balance pan and attached to the DVS-advantage dynamic vapor adsorption balance by the Surface Measurement Systems. […] After the completion of the sorption cycle, the sample was dried using the same procedure, during which the relative humidity was returned to a relative humidity […] all the time. The change in weight during the sorption/desorption cycle (repetition of 3 times) was recorded to determine the hygroscopicity of the sample.

[4] = Behaviour under long-term, accelerated and harsh storage conditions (moisture absorption, stability of form)
[5] = Solubility in water of the compound of chemical formula (1); conditions: amorphous free base
[6] = 25 ± 2° C., 60 ± 5% RH, listed as HCl cryst. hydrate
[7] = 40 ± 2° C., 75 ± 5% RH, listed as HCl cryst. hydrate
[8] = relative humidity range of 10-90%, 25° C.
[9] = 25 ± 2° C., 60 ± 5% RH, listed as HCl cryst. anhydrate
[10] = 40 ± 2° C., 75 ± 5% RH, listed as HCl cryst. anhydrate

## C=CC(=O)N1CCC(Oc2cc3c(Nc4ccc(Cl)c(Cl)c4F)ncnc3cc2OC)CC1 [Example 4, 1-(4-(4-(3,4-dichloro-2-fluorophenylamino)-7-methoxyquinazolin-6-yloxy)piperidin-1-yl)prop-2-en-1-one]
[1]; listed as HCl cryst. hydrate
  Solubility, pH 1.2: 5 μg/mL
  Solubility, pH 2.0: 7 μg/mL
  Solubility, pH 4.0: 48 μg/mL
  Solubility, Water: <LOD
[2]; [6]
  Purity (HPLC, %) 3 days: 99.2%
  Purity (HPLC, %) Start: 99.2%
  Purity (HPLC, %) Week 1: 99.2%
  Purity (HPLC, %) Week 2: 99.1%
  Purity (HPLC, %) Week 4: 99.2%
[2]; [7]
  Purity (HPLC, %) 3 days: 99.3%
  Purity (HPLC, %) Start: 99.2%
  Purity (HPLC, %) Week 1: 99.2%
  Purity (HPLC, %) Week 2: 99.1%
  Purity (HPLC, %) Week 4: 99.2%
[3]; [8]
  hygroscopic degree (DVS): about 0.4%
[3]; relative humidity range of 10-90%, 25° C., listed as crystalline monohydrochloride monohydrate (1HCl.1H2O) form
  hygroscopic degree (DVS): very low

## C=CC(=O)N1CCC(Oc2cc3c(Nc4ccc(Cl)c(Cl)c4F)ncnc3cc2OC)CC1 [Example 3, 1-(4-(4-(3,4-dichloro-2-fluorophenylamino)-7-methoxyquinazolin-6-yloxy)piperidin-1-yl)prop-2-en-1-one]
[3]; relative humidity range of 0-90%, listed as crystalline anhydrous Form II
  hygroscopic degree (DVS): very low
[3]; [8]
  hygroscopic degree (DVS): about 0.7%
[4]; long-term (25° C., 60% RH), accelerated (40° C., 75% RH) and harsh (60° C.) conditions
  stability of the crystalline form on storage: sufficiently stable

## C=CC(=O)N1CCC(Oc2cc3c(Nc4ccc(Cl)c(Cl)c4F)ncnc3cc2OC)CC1 [Example 5, 1-(4-(4-(3,4-dichloro-2-fluorophenylamino)-7-methoxyquinazolin-6-yloxy)piperidin-1-yl)prop-2-en-1-one]
[1]; listed as HCl cryst. anhydrate
  Solubility, pH 1.2: 92 μg/mL
  Solubility, pH 2.0: 140 μg/mL
  Solubility, pH 4.0: 74 μg/mL
  Solubility, Water: 20 µg/mL
[2]; [9]
  Purity (HPLC, %) 3 days: 99.4%
  Purity (HPLC, %) Start: 99.4%
  Purity (HPLC, %) Week 1: 99.4%
  Purity (HPLC, %) Week 2: 99.5%
  Purity (HPLC, %) Week 4: 99.5%
[2]; [10]
  Purity (HPLC, %) 3 days: 99.4%
  Purity (HPLC, %) Start: 99.4%
  Purity (HPLC, %) Week 1: 99.4%
  Purity (HPLC, %) Week 2: 99.5%
  Purity (HPLC, %) Week 4: 99.5%
[3]; [8]
  hygroscopic degree (DVS): about 0.35%
[3]; relative humidity range of 10-90%, 25° C., listed as crystalline anhydrous monohydrochloride (1HCl) form
  hygroscopic degree (DVS): very low
[4]; 25° C., 60% relative humidity and 40° C., 75% relative humidity
  moisture absorption on storage: did not absorb moisture

## C=CC(=O)N1CCC(Oc2cc3c(Nc4ccc(Cl)c(Cl)c4F)ncnc3cc2OC)CC1 [Reference Example, 1-(4-(4-(3,4-dichloro-2-fluorophenylamino)-7-methoxyquinazolin-6-yloxy)piperidin-1-yl)prop-2-en-1-one]
[5]
  solubility: < 1 µg/mL
[3]; [8]
  hygroscopic degree (DVS): 1-3%

## C=CC(=O)N1CCC(Oc2cc3c(Nc4ccc(Cl)c(Cl)c4F)ncnc3cc2OC)CC1 [Example 6, 1-(4-(4-(3,4-dichloro-2-fluorophenylamino)-7-methoxyquinazolin-6-yloxy)piperidin-1-yl)prop-2-en-1-one]
[1]; listed as HCl amorphous
  Solubility, pH 1.2: 274 μg/mL
  Solubility, pH 2.0: 213 μg/mL
  Solubility, pH 4.0: 34 μg/mL
  Solubility, Water: 53 µg/mL
